Laboratory results as given in patent US7183267B2, “β-lactamase inhibitors and methods of use thereof” (priority 2003, dated 2007).
Converted amounts (≈) assume the structure as drawn. Like-named read-outs stand apart in the source and are kept apart here.

Assays:
Format in all cases: cell-based
[1] = test system: methicillin resistant S. aureus ATCC 33591 (MRSA-ATCC); experiment: Matrix system: oxacillin plus β-lactamase inhibitor, MRSA-ATCC; set-up: key to extent of growth (numerical code): 0 = no growth, 1 = faint, 2 = fair, 3 = equal to solvent control
Description: (§1) To each well of a 96 well microtiter plate was added 47.5 μl of MHB. A volume of 2.5 μl of each dilution of oxacillin was then transferred to appropriate wells containing the medium. All wells, except the sterility control wells, were then inoculated with 50 μl of a diluted cell suspension to give a final volume of 100 μl and a final cell density of 5×10^4 CFU/well. The volume in the sterility control wells was adjusted to 100 μl with MHB. A sterile pipette tip was used to mix the contents of each well (one tip was used going from the low to the high concentration in the same column). The microtiter plates were covered with the lids and were placed in large Stratagene Big Blue plates (Cat. # 400041). Four large kimwipes moistened with tap water were placed near the edges of the Stratagene plates to prevent evaporation of the medium. The microtiter plates were incubated for at least 24 hours at 35° C. The plates were then evaluated for growth in each well. Controls included: medium sterility and negative control (medium and bacteria only).
(§2) A numerical code was used to evaluate the extent of growth as indicated below. • 0: absence of growth • 1: barely visible (faint) growth • 2: fair growth but less than the negative solvent control • 3: growth is equivalent to the negative solvent control.
(§3) The lowest dose at which no visible growth is observed was determined to be the MIC value.
The effect of the four compounds of the present invention on oxacillin resistance of the MRSA strains was determined using a matrix system. The β-lactamase inhibitors were tested at 5 doses against up to eleven concentrations of oxacillin. […] A 96-well microtiter plate was used for the matrix system. The procedure was identical to that described above for the MIC determination, with the exception that both oxacillin and one each of the β-lactamase inhibitors was added, 2.5 μl each, to the wells prior to addition of the test organisms.
Matrix Study:Oxacillin and Compound FL201 with MRSA-ATCC
Matrix Study: Oxacillin and Compound Fl202 with MRSA-ATCC

[2] = test system: methicillin resistant S. aureus ATCC 33591 (MRSA-ATCC); experiment: MIC assay, broth microdilution, MRSA-ATCC; conditions: Staphylococcus aureus
Description: (1) methicillin resistant S. aureus ATCC 33591 (MRSA-ATCC). This strain was obtained from American Type Culture Collection (ATCC), Manassas, Md.;
(§4) The strains were processed according to procedures recommended by ATCC, or procedures that are routinely used. Single colonies of each organism were picked for purification to generate pure working cultures. Prior to each experiment each strain was subcultured on a fresh Mueller-Hinton agar plate (MHA).
(§5) Inocula for the MIC assays were prepared by transferring a tiny portion of one colony from a MHA plate to 2 ml of Mueller-Hinton broth (MHB) such that the estimated cell density was about 10^7 colony forming unit (CFU)/ml. This cell suspension was then further diluted 10-fold (to 10^6 CFU/ml) by transferring the 2 ml cell suspension to 18 ml of MHB. Addition of 50 μl of this dilute cell suspension to 50 μl of growth medium yielded the desired cell density, namely about 5×10^4 CFU/well, or 5×10^5 CFU/ml.
(§6) The MIC value of oxacillin was determined using the broth microdilution procedure recommended by the National Committee of Clinical Laboratory Standards (NCCLS, 2000).
(§7) The MIC experiments were performed in duplicate in 96-well microtiter plates using MHB. A stock solution of 2.6 mg/0.5 ml was prepared in dimethylsulfoxide (DMSO). A total of 8 two-fold serial dilutions were made with DMSO. Initial oxacillin doses used were (μg/ml): 64, 32, 16, 8, 4, 2, 1, and 0.5. Doses were adjusted in the confirmatory experiment, if needed, in order to establish an actual MIC value.
as §1
(§8) The procedure used to determine the antimicrobial activity of the compounds of the present invention was identical to the broth microdilution procedure described above with the exception of the preparation of the stock solutions. Stock solution at concentration of 40.96 mg/0.5 ml was prepared in DMSO for each of the compounds. A total of 8 two-fold dilutions were then made in DMSO. A volume of 2.5 μl of each dilution was delivered to appropriate wells. The initial doses used were (μg/ml): 512, 256, 128, 64, 32, 16, 8, and 4.
as §2, §3
(§9) MIC assays were performed with oxacillin and the four compounds. Each of the compounds was tested at the following 8 doses (μg/ml): 512, 256, 128, 64, 32, 16, 8, and 4. Oxacillin was tested at the following 8 doses (μg/ml): 64, 32, 16, 8, 4, 2, 1, and 0.5.

[3] = test system: methicillin sensitive S. aureus ATCC 25923 (MSSA); experiment: MIC assay, broth microdilution, MSSA; conditions: Staphylococcus aureus
Description: (3) methicillin sensitive S. aureus ATCC 25923 (MSSA). This strain was obtained from ATCC and was used as a control.
as §4, §5, §6, §7, §1, §8, §2, §3, §9

COC(=O)c1cc(B(O)O)cc([N+](=O)[O-])c1 [Compound F1202]
MIC of oxacillin ([1]; matrix study, with compound 1 μg/ml): 32 µg/mL | MIC of oxacillin ([1]; matrix study, with compound 2 μg/ml): 16 µg/mL | MIC of oxacillin ([1]; matrix study, with compound 4 μg/ml): 1 µg/mL | MIC of oxacillin ([1]; matrix study, with compound 8 μg/ml): 0.125 µg/mL | MIC of oxacillin ([1]; matrix study, with compound 16 μg/ml): <0.064 µg/mL | extent of growth (numerical code) ([1]; oxacillin 0 μg/ml + compound 1 μg/ml): 3 | extent of growth (numerical code) ([1]; oxacillin 0 μg/ml + compound 2 μg/ml): 2 | extent of growth (numerical code) ([1]; oxacillin 0 μg/ml + compound 4 μg/ml): 2 | extent of growth (numerical code) ([1]; oxacillin 0 μg/ml + compound 8 μg/ml): 1 | extent of growth (numerical code) ([1]; oxacillin 0 μg/ml + compound 16 μg/ml): 1 | extent of growth (numerical code) ([1]; oxacillin 0.064 μg/ml + compound 1 μg/ml): 3 | extent of growth (numerical code) ([1]; oxacillin 0.064 μg/ml + compound 2 μg/ml): 3 | extent of growth (numerical code) ([1]; oxacillin 0.064 μg/ml + compound 4 μg/ml): 2 | extent of growth (numerical code) ([1]; oxacillin 0.064 μg/ml + compound 8 μg/ml): 1 | extent of growth (numerical code) ([1]; oxacillin 0.064 μg/ml + compound 16 μg/ml): 0 | extent of growth (numerical code) ([1]; oxacillin 0.125 μg/ml + compound 1 μg/ml): 3 | extent of growth (numerical code) ([1]; oxacillin 0.125 μg/ml + compound 2 μg/ml): 3 | extent of growth (numerical code) ([1]; oxacillin 0.125 μg/ml + compound 4 μg/ml): 2 | extent of growth (numerical code) ([1]; oxacillin 0.125 μg/ml + compound 8 μg/ml): 0 | extent of growth (numerical code) ([1]; oxacillin 0.125 μg/ml + compound 16 μg/ml): 0 | extent of growth (numerical code) ([1]; oxacillin 0.25 μg/ml + compound 1 μg/ml): 3 | extent of growth (numerical code) ([1]; oxacillin 0.25 μg/ml + compound 2 μg/ml): 2 | extent of growth (numerical code) ([1]; oxacillin 0.25 μg/ml + compound 4 μg/ml): 1 | extent of growth (numerical code) ([1]; oxacillin 0.25 μg/ml + compound 8 μg/ml): 0 | extent of growth (numerical code) ([1]; oxacillin 0.25 μg/ml + compound 16 μg/ml): 0 | extent of growth (numerical code) ([1]; oxacillin 0.5 μg/ml + compound 1 μg/ml): 3 | extent of growth (numerical code) ([1]; oxacillin 0.5 μg/ml + compound 2 μg/ml): 2 | extent of growth (numerical code) ([1]; oxacillin 0.5 μg/ml + compound 4 μg/ml): 1 | extent of growth (numerical code) ([1]; oxacillin 0.5 μg/ml + compound 8 μg/ml): 0 | extent of growth (numerical code) ([1]; oxacillin 0.5 μg/ml + compound 16 μg/ml): 0 | extent of growth (numerical code) ([1]; oxacillin 1 μg/ml + compound 1 μg/ml): 3 | extent of growth (numerical code) ([1]; oxacillin 1 μg/ml + compound 2 μg/ml): 2 | extent of growth (numerical code) ([1]; oxacillin 1 μg/ml + compound 4 μg/ml): 0 | extent of growth (numerical code) ([1]; oxacillin 1 μg/ml + compound 8 μg/ml): 0 | extent of growth (numerical code) ([1]; oxacillin 1 μg/ml + compound 16 μg/ml): 0 | extent of growth (numerical code) ([1]; oxacillin 2 μg/ml + compound 1 μg/ml): 2 | extent of growth (numerical code) ([1]; oxacillin 2 μg/ml + compound 2 μg/ml): 2 | extent of growth (numerical code) ([1]; oxacillin 2 μg/ml + compound 4 μg/ml): 0 | extent of growth (numerical code) ([1]; oxacillin 2 μg/ml + compound 8 μg/ml): 0 | extent of growth (numerical code) ([1]; oxacillin 2 μg/ml + compound 16 μg/ml): 0 | extent of growth (numerical code) ([1]; oxacillin 4 μg/ml + compound 1 μg/ml): 2 | extent of growth (numerical code) ([1]; oxacillin 4 μg/ml + compound 2 μg/ml): 2 | extent of growth (numerical code) ([1]; oxacillin 4 μg/ml + compound 4 μg/ml): 0 | extent of growth (numerical code) ([1]; oxacillin 4 μg/ml + compound 8 μg/ml): 0 | extent of growth (numerical code) ([1]; oxacillin 4 μg/ml + compound 16 μg/ml): 0 | extent of growth (numerical code) ([1]; oxacillin 8 μg/ml + compound 1 μg/ml): 2 | extent of growth (numerical code) ([1]; oxacillin 8 μg/ml + compound 2 μg/ml): 1 | extent of growth (numerical code) ([1]; oxacillin 8 μg/ml + compound 4 μg/ml): 0 | extent of growth (numerical code) ([1]; oxacillin 8 μg/ml + compound 8 μg/ml): 0 | extent of growth (numerical code) ([1]; oxacillin 8 μg/ml + compound 16 μg/ml): 0 | extent of growth (numerical code) ([1]; oxacillin 16 μg/ml + compound 1 μg/ml): 2 | extent of growth (numerical code) ([1]; oxacillin 16 μg/ml + compound 2 μg/ml): 0 | extent of growth (numerical code) ([1]; oxacillin 16 μg/ml + compound 4 μg/ml): 0 | extent of growth (numerical code) ([1]; oxacillin 16 μg/ml + compound 8 μg/ml): 0 | extent of growth (numerical code) ([1]; oxacillin 16 μg/ml + compound 16 μg/ml): 0 | extent of growth (numerical code) ([1]; oxacillin 32 μg/ml + compound 1 μg/ml): 0 | extent of growth (numerical code) ([1]; oxacillin 32 μg/ml + compound 2 μg/ml): 0 | extent of growth (numerical code) ([1]; oxacillin 32 μg/ml + compound 4 μg/ml): 0 | extent of growth (numerical code) ([1]; oxacillin 32 μg/ml + compound 8 μg/ml): 0 | extent of growth (numerical code) ([1]; oxacillin 32 μg/ml + compound 16 μg/ml): 0 | extent of growth (numerical code) ([1]; oxacillin 64 μg/ml + compound 1 μg/ml): 0 | extent of growth (numerical code) ([1]; oxacillin 64 μg/ml + compound 2 μg/ml): 0 | extent of growth (numerical code) ([1]; oxacillin 64 μg/ml + compound 4 μg/ml): 0 | extent of growth (numerical code) ([1]; oxacillin 64 μg/ml + compound 8 μg/ml): 0 | extent of growth (numerical code) ([1]; oxacillin 64 μg/ml + compound 16 μg/ml): 0 | MIC ([2]; 24 h): 16 µg/mL (≈ 71.1 µM) | MIC ([3]; 24 h): 128 µg/mL (≈ 569 µM)

Cc1onc(-c2ccccc2)c1C(=O)N[C@@H]1C(=O)N2[C@@H]1SC(C)(C)[C@@H]2C(=O)O [Oxacillin, reference compound]
MIC ([1]; Staphylococcus aureus, 24 h, matrix study, compound 0 μg/ml): 64 µg/mL | extent of growth (numerical code) ([1]; oxacillin 0.064 μg/ml + compound 0 μg/ml): 3 | extent of growth (numerical code) ([1]; oxacillin 0.125 μg/ml + compound 0 μg/ml): 3 | extent of growth (numerical code) ([1]; oxacillin 0.25 μg/ml + compound 0 μg/ml): 3 | extent of growth (numerical code) ([1]; oxacillin 0.5 μg/ml + compound 0 μg/ml): 3 | extent of growth (numerical code) ([1]; oxacillin 1 μg/ml + compound 0 μg/ml): 3 | extent of growth (numerical code) ([1]; oxacillin 2 μg/ml + compound 0 μg/ml): 3 | extent of growth (numerical code) ([1]; oxacillin 4 μg/ml + compound 0 μg/ml): 3 | extent of growth (numerical code) ([1]; oxacillin 8 μg/ml + compound 0 μg/ml): 3 | extent of growth (numerical code) ([1]; oxacillin 16 μg/ml + compound 0 μg/ml): 2 | extent of growth (numerical code) ([1]; oxacillin 32 μg/ml + compound 0 μg/ml): 2 | extent of growth (numerical code) ([1]; oxacillin 64 μg/ml + compound 0 μg/ml): 0 | MIC ([2]; MRSA-ATCC, substance alone, at least 24 hours at 35° C., read-out: MIC): 32 µg/mL (≈ 79.7 µM) | MIC ([3]; MSSA, substance alone, at least 24 hours at 35° C., read-out: MIC): 0.25 µg/mL (≈ 0.623 µM)
